Assay results: US20080227780A1, “SOLUBLE EPOXIDE HYDROLASE INHIBITORS” (Arete Therapeutics, Inc., priority 2007, published 2008)

Each compound was assayed on soluble epoxide hydrolase (sEH) (assay: Fluorescent assay for soluble epoxide hydrolase (CMNPC substrate), percent inhibition at the recited concentration). Settings: Inhibition Conc. 50 nM.
Assay type: biochemical
Excerpt: Fluorescent Assay for Mouse and Human Soluble Epoxide Hydrolase Recombinant mouse sEH (MsEH) and human sEH (HsEH) were produced in a baculovirus expression system as previously reported. Grant et al., J. Biol. Chem., 268:17628-17633 (1993); Beetham et al., Arch. Biochem. Biophys., 305:197-201 (1993). The expressed proteins were purified from cell lysate by affinity chromatography. Wixtrom et al., Anal. Biochem., 169:71-80 (1988). Protein concentration was quantified using the Pierce BCA assay using bovine serum albumin as the calibrating standard. The preparations were at least 97% pure as judged by SDS-PAGE and scanning densitometry. They contained no detectable esterase or glutathione transferase activity which can interfere with the assay. The assay was also evaluated with similar results in crude cell lysates or homogenate of tissues. The IC50s for each inhibitor were determined according to the following procedure: […] Jones P. D. et al.; Analytical Biochemistry 2005; 343: pp. 66-75) Bis/Tris HCl 25 mM pH 7.0 containing 0.1 mg/mL of BSA (buffer […] at 0.25 mM in DMSO. Mother solution of enzyme in buffer A (Mouse sEH at 6 μg/mL and Human sEH at 5 μg/mL). Inhibitor dissolved in DMSO at the appropriate concentration. In a black 96 well plate, fill all the wells with 150 μL of buffer A. Add 2 μL of DMSO in well A2 and A3, and then add 2 μL of inhibitor solution in A1 and A4 through A12. Add 150 μL of buffer A in row A, then mix several time and transfer 150 μL to row B. Repeat this operation up to row H. The 150 μL removed from row H is discarded. Add 20 μL of buffer A in column 1 and 2, then add 20 μL of enzyme solution to column 3 to 12. Incubate the plate for 5 minutes in the plate reader at 30° C. During incubation prepare the working solution of substrate by mixing 3.68 mL of buffer A (4×0.920 mL) with 266 μL (2×133 μL) of substrate solution). At t=0, add 30 μL of working substrate solution with multi-channel pipette labeled “Briggs 303” and start the reading ([S]final: 5 μM). Read with ex: 330 nm (20 nm) and em: 465 nm (20 nm) every 30 second for 10 minutes. The velocities are used to analyze and calculate the IC50s. Tables 1-7 above provide the percent inhibition of the enzyme when tested at the concentration recited therein.

| SMILES | % inh. [%] |
| --- | --- |
| CC(C)(C)C(=O)N1CCC(NC(=O)Nc2ccc(OC(F)(F)F)cc2)CC1 [Compound 7-19, 1-(1-pivaloylpiperidin-4-yl)-3-(4-(trifluoro-methoxy)phenyl)urea] | 97 |
| CC(C)OC(=O)N1CCC(NC(=O)Nc2ccc(C(F)(F)F)cc2)CC1 [Compound 7-20, isopropyl 4-(3-(4-(trifluoromethyl)phenyl)ureido)piperidine-1-carboxylate] | 95 |
| CN(C)C(=O)N1CCC(NC(=O)Nc2ccc(C(F)(F)F)cc2)CC1 [Compound 7-21, N,N-dimethyl-4-(3-(4-(trifluoromethyl)phenyl)-ureido)piperidine-1-carboxamide] | 86 |
| CC(C)OC(=O)N1CCC(NC(=O)Nc2ccc(OC(F)(F)F)cc2)CC1 [Compound 7-22, isopropyl 4-(3-(4-(trifluoromethoxy)phenyl)ureido)piperidine-1-carboxylate] | 99 |
| CC(C)OC(=O)N1CCC(NC(=O)NC23CC4CC(CC(C4)C2)C3)CC1 [Compound 7-23, isopropyl 4-(3-(1-adamantyl)ureido)piperidine-1-carboxylate] | 93 |
| Cn1cnc(C(=O)N2CCC(NC(=O)NC34CC5CC(CC(C5)C3)C4)CC2)c1 [Compound 7-39, 1-adamantyl-3-(1-(1-methyl-1H-imidazole-4-carbonyl)piperidin-4-yl)urea] | 89 |
| O=C(NC1CCCCC1)NC1CCN(C(=O)c2ccccn2)CC1 [Compound 7-40, 1-cyclohexyl-3-(1-picolinoylpiperidin-4-yl)urea] | 82 |
| O=C(NC1CCCCC1)NC1CCN(S(=O)(=O)c2ccc(Cl)cc2)CC1 [Compound 7-42, 1-(1-(4-chlorophenylsulfonyl)piperidin-4-yl)-3-cyclohexylurea] | 95 |
| O=C(NC1CCCCC1)NC1CCN(S(=O)(=O)c2cccc(C(F)(F)F)c2)CC1 [Compound 7-44, 1-cyclohexyl-3-(1-(3-(trifluoromethyl)phenylsulfonyl)piperidin-4-yl)urea] | 81 |
| CC(C)(C)OC(=O)N1CCC(NC(=O)Nc2ccc(C(F)(F)F)cc2)CC1 [Compound 7-47, tert-butyl 4-(3-(4-(trifluoromethyl)phenyl)ureido)piperidine-1-carboxylate] | 100 |

Second part, the compound after the results:

| % inh. [%] | SMILES |
| --- | --- |
| 96 | O=C(NC1CCN(S(=O)(=O)c2ccc(-c3ccccc3)cc2)CC1)NC12CC3CC(CC(C3)C1)C2 [Compound 7-24, 1-(1-(biphenyl-4-ylsulfonyl)piperidin-4-yl)-3-adamantylurea] |
| 99 | O=C(NC1CCN(S(=O)(=O)c2ccc3ccccc3c2)CC1)NC12CC3CC(CC(C3)C1)C2 [Compound 7-25, 1-adamantyl-3-(1-(naphthalen-2-ylsulfonyl)piperidin-4-yl)urea] |
| 97 | O=C(NC1CCN(S(=O)(=O)c2ccccc2)CC1)NC12CC3CC(CC(C3)C1)C2 [Compound 7-26, 1-adamantyl-3-(1-(phenylsulfonyl)piperidin-4-yl)urea] |
| 95 | O=C(NC1CCN(S(=O)(=O)c2ccc(Cl)cc2)CC1)NC12CC3CC(CC(C3)C1)C2 [Compound 7-27] |
| 94 | O=C(NC1CCN(S(=O)(=O)c2cccs2)CC1)NC12CC3CC(CC(C3)C1)C2 [Compound 7-28, 1-adamantyl-3-(1-(thiophen-2-ylsulfonyl)piperidin-4-yl)urea] |
| 93 | O=C(NC1CCN(S(=O)(=O)Cc2ccccc2)CC1)NC12CC3CC(CC(C3)C1)C2 [Compound 7-29, 1-(1-(benzylsulfonyl)piperidin-4-yl)-3-adamantylurea] |
| 97 | CC(C)(C)c1ccc(S(=O)(=O)N2CCC(NC(=O)NC34CC5CC(CC(C5)C3)C4)CC2)cc1 [Compound 7-30, 1-(1-(4-tert-butylphenylsulfonyl)piperidin-4-yl)-3-adamantylurea] |
| 97 | O=C(NC1CCN(S(=O)(=O)c2ccccc2C(F)(F)F)CC1)NC12CC3CC(CC(C3)C1)C2 [Compound 7-32, 1-adamantyl-3-(1-(2-(trifluoromethyl)phenylsulfonyl)piperidin-4-yl)urea] |
| 99 | Cc1ccccc1S(=O)(=O)N1CCC(NC(=O)NC23CC4CC(CC(C4)C2)C3)CC1 [Compound 7-33, 1-adamantyl-3-(1-(o-tolylsulfonyl)piperidin-4-yl)urea] |
| 91 | Cc1c(Cl)cccc1S(=O)(=O)N1CCC(NC(=O)NC23CC4CC(CC(C4)C2)C3)CC1 [Compound 7-34, 1-(1-(3-chloro-2-methylphenylsulfonyl)piperidin-4-yl)-3-adamantylurea] |
| 98 | Cc1cccc(Cl)c1S(=O)(=O)N1CCC(NC(=O)NC23CC4CC(CC(C4)C2)C3)CC1 [Compound 7-35, 1-(1-(2-chloro-6-methylphenylsulfonyl)piperidin-4-yl)-3-adamantylurea] |
| 99 | O=C(NC1CCN(S(=O)(=O)c2ccc(C(F)(F)F)cc2)CC1)NC12CC3CC(CC(C3)C1)C2 [Compound 7-36, 1-adamantyl-3-(1-(4-(trifluoromethyl)phenylsulfonyl)piperidin-4-yl)urea] |
| 100 | O=C(NC1CCN(S(=O)(=O)c2ccc(Cl)c(Cl)c2)CC1)NC12CC3CC(CC(C3)C1)C2 [Compound 7-37] |
| 100 | O=C(NC1CCN(S(=O)(=O)c2cccc(C(F)(F)F)c2)CC1)NC12CC3CC(CC(C3)C1)C2 [Compound 7-38, 1-adamantyl-3-(1-(3-(trifluoromethyl)phenylsulfonyl)piperidin-4-yl)urea] |
| 92 | CS(=O)(=O)c1ccc(S(=O)(=O)N2CCC(NC(=O)NC34CC5CC(CC(C5)C3)C4)CC2)cc1 [Compound 7-41, 1-adamantyl-3-(1-(4-(methylsulfonyl)phenylsulfonyl)piperidin-4-yl)urea] |
| 92 | O=C(NC1CCN(S(=O)(=O)c2ccc(C(=O)O)cc2)CC1)NC12CC3CC(CC(C3)C1)C2 [Compound 7-45, 4-(4-(3-adamantylureido)piperidin-1-ylsulfonyl)benzoic acid] |
| 96 | O=C(NC1CCN(C(=O)c2ccc(Cl)cc2)CC1)NC12CC3CC(CC(C3)C1)C2 [Compound 7-46, 1-(1-(4-chlorobenzoyl)piperidin-4-yl)-3-adamantylurea] |

Same assay, conditions: Inhibition Conc. 200 nM

| % inh. [%] | SMILES |
| --- | --- |
| 100 | CC(C)(C)OC(=O)N1CCC(NC(=O)NC2CCCCCC2)CC1 [Compound 7-48, tert-butyl 4-(3-cycloheptylureido)piperidine-1-carboxylate] |
| 83 | CC(C)(C)OC(=O)N1CCC(NC(=O)Nc2ccc(S(C)(=O)=O)cc2)CC1 [Compound 7-49, tert-butyl 4-(3-(4-(methylsulfonyl)phenyl)ureido)piperidine-1-carboxylate] |
| 76 | CC(C)(C)OC(=O)N1CCC(NC(=O)NC2CCC2)CC1 [Compound 7-50, tert-butyl 4-(3-cyclobutylureido)piperidine-1-carboxylate] |
| 94 | CC(C)S(=O)(=O)N1CCC(NC(=O)Nc2ccc(OC(F)(F)F)cc2)CC1 [Compound 7-55, 1-(1-(isopropylsulfonyl)piperidin-4-yl)-3-(4-(trifluoromethoxy)phenyl)urea] |
| 86 | O=C(NC1CCN(C(=O)NC23CC4CC(CC(C4)C2)C3)CC1)NC12CC3CC(CC(C3)C1)C2 [Compound 7-56, N-adamantyl-4-(3-adamantylureido)piperidine-1-carboxamide] |

Same assay, conditions: Inhibition Conc. 500 nM

| % inh. [%] | SMILES |
| --- | --- |
| 85 | CC(C)(C)OC(=O)N1CCC(NC(=O)NC2CCCC2)CC1 [Compound 7-17, tert-butyl 4-(3-cyclopentylureido)-piperidine-1-carboxylate] |
| 86 | CC(=O)N1CCC(NC(=O)NC2CCCCC2)CC1 [Compound 7-43, 1-(1-acetylpiperidin-4-yl)-3-cyclohexylurea] |

Same assay, conditions: Inhibition Conc. 2000 nM

| % inh. [%] | SMILES |
| --- | --- |
| 44 | CC(=O)N1CCC(NC(=O)Nc2ccc(N(C)C)cc2)CC1 [Compound 7-52, 1-(1-acetylpiperidin-4-yl)-3-(4-(dimethylamino)phenyl)urea] |
| 17 | CC(=O)N1CCC(NC(=O)Nc2ccc(C(=O)O)cc2)CC1 [Compound 7-53, 4-(3-(1-acetylpiperidin-4-yl)ureido)benzoic acid] |

| SMILES | % inh. [%] |
| --- | --- |
| CC(C)(C)OC(=O)N1CCC(NC(=O)Nc2ccc(C(=O)O)cc2)CC1 [Compound 7-54, 4-(3-(1-(tert-butoxycarbonyl)piperidin-4-yl)ureido)benzoic acid] | 55 |

Same assay, conditions: Inhibition Conc. 5000 nM

| % inh. [%] | SMILES |
| --- | --- |
| 74 | CC(=O)N1CCC(NC(=O)NC2CCCC2)CC1 [Compound 7-18, 1-(1-acetylpiperidin-4-yl)-3-cyclopentylurea] |
